Experimental data: patent US20250222051A1, “MU[…] ADJUVANT TREATMENT OF TUMOR, AND PREPARATION METHOD AND APPLICATION THEREOF” (Changde Jizhi Biological Technology Co., Ltd, priority 2024, published 2025)

Assays:
[1] = tested on: human cervical cancer epithelial cells (Hela); details: Hela transplanted tumor, oxaliplatin 15 mg/kg tail vein once, products 0.45 g/kg intragastric
Description: (§1) Experimental animals: BLAB/c female nude mice, 6-7 weeks old, weighing 18-20 g.
(§2) Subcutaneous tumor cell inoculation in mice: Human lung cancer cells (A549), human ovarian cancer cells (Skov-3) and human cervical cancer epithelial cells (Hela) in logarithmic growth phase are taken and made into cell suspension (1×10^7 cells/mL) with phosphate buffered saline (PBS), each mouse is inoculated with 2×10^6 cells, the inoculation volume is 200 microliters (μL), and then inoculated subcutaneously in the armpit of BLAB/c nude mice. The selected tumor tissues are put into a glass homogenizer, ground with sterile physiological saline, filtered into a single cell suspension through a sieve, and the number of living cells is counted by trypan blue staining. Each nude mouse is inoculated with 200 μL cell suspension (including 1×10^6 cells) under its armpit.
(§3) Experimental grouping and methods: nude mice with the same tumor size are selected, and the nude mice are weighed and randomly divided into groups. […] The drug concentration and specific grouping are as follows. The model control group is intragastrically administered with 200 μL normal saline once a day, the mice are administered once on the second day after tumor inoculation. […] After 24 hours of the last administration, the tumor mass is taken out, the tumor weight is measured and the tumor inhibition rate is calculated.

mouse H22 hepatoma cells = details: oxaliplatin 15 mg/kg tail vein once, products 0.45 g/kg intragastric
Protocol: The anti-tumor effect of the product of the disclosure on a Hepatoma-22 (H22) mouse model of live cancer is studied.
Positive control drug: oxaliplatin.
Animals and preparation of tumors are as follows. BALB/c male mice are adopted, weighing 18-22 g. The mice are fed in specific-pathogen free (SPF) grade animal house, with temperature of 20-25° C., relative humidity of 40%-70%, 6 mice per cage, illumination time of 12 h, regular and quantitative addition of feed, free drinking water, and daily replacement of padding.
Transplanted tumor cells: 10^6 mouse H22 hepatoma cells are injected into abdominal cavity for passage, and the hepatoma cells are collected after 7-10 days for subcutaneous inoculation.
Experimental methods of tumor passage preservation for in vivo tumor inhibition effect evaluation: H22 hepatoma mice are inoculated intraperitoneally and the ascites is taken for passage and preservation.
Tumor inoculation: H22 hepatocellular carcinoma bearing mice on the 10th day of ascites passage are taken, the mice are killed by cervical vertebra removal, the abdominal skin is disinfected, milky white ascites is absorbed with a sterile syringe, and the concentration of tumor cells is adjusted to 1×10^6 cells per milliliter (mL) with normal saline for injection. The right armpit skin of BALB/c mice is disinfected with alcohol cotton balls, 0.2 mL of the tumor cell suspension is inoculated subcutaneously, and the mice are raised routinely.
After 24 hours of the last administration, the mice are sacrificed by cervical dislocation, and the tumor tissues are stripped and weighed. The curative effect is evaluated by tumor weight inhibition rate (%), and analysis of variance (ANOVA) test is used for statistical comparison between groups.

[2] = tested on: Human lung cancer cells (A549); details: A549 transplanted tumor, oxaliplatin 15 mg/kg tail vein once, products 0.45 g/kg intragastric
Description: as §1, §2, §3

[3] = tested on: human ovarian cancer cells (Skov-3); details: Skov-3 transplanted tumor, oxaliplatin 15 mg/kg tail vein once, products 0.45 g/kg intragastric
Description: as §1, §2, §3

Structure (SMILES): O=C1[O][Pt]2([NH][C@@H]3CCCC[C@H]3[NH]2)[O]C1=O [Oxaliplatin, oxaliplatin]
- Tumor weight ([1]; X ± SD): 1.78 ± 0.33 g
- Inhibition rate (%) [1]: 45.25%
- Tumor weight (mouse H22 hepatoma cells; H22 subcutaneous tumor, 24 hours after last administration): 1.14 ± 0.29 g
- Inhibition rate (%) (mouse H22 hepatoma cells; H22 tumor weight inhibition rate): 50.22%
- Weight Start (mouse H22 hepatoma cells; body weight of H22 tumor-bearing mice at start): 20.09 ± 1.08
- Tumor weight ([2]; X ± SD): 0.98 ± 0.32 g
- Inhibition rate (%) [2]: 58.25%
- Tumor weight ([3]; X ± SD): 1.78 ± 0.33 g
- Inhibition rate (%) [3]: 45.25%
